This is an account of results in ChEMBL document CHEMBL1201862, “PubChem BioAssay data set” (2004).

Common to all, as to type: functional
Assay [1] addresses T1, Corticotropin-releasing factor receptor 2/Corticotropin-releasing factor-binding protein (Homo sapiens, UniProt P24387+Q13324).
T1 sequence (Q13324 whole entry): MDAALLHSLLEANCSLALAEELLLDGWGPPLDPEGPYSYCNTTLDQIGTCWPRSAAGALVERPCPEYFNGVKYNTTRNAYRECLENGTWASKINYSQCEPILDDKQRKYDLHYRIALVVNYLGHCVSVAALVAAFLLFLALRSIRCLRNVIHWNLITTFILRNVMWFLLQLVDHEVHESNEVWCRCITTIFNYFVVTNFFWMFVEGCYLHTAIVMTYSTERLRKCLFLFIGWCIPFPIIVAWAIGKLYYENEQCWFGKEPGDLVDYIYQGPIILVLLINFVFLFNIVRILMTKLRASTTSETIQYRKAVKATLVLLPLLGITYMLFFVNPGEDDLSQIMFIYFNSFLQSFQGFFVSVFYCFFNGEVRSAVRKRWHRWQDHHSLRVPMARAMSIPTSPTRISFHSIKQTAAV
T1 sequence (P24387 whole entry): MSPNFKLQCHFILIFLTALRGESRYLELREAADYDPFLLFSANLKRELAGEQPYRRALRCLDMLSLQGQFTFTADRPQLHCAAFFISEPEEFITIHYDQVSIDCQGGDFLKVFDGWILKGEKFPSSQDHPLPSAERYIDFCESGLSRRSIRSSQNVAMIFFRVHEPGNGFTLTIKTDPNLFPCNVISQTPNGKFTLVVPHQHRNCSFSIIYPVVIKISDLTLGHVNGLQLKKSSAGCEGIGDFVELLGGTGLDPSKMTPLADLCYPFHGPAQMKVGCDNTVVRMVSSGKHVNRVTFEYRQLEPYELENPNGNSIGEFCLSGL
In words: Dose Response confirmation of uHTS hits for small molecule antagonists of the CRF-binding protein and CRF-R2 receptor complex. The settings on record: read-out: IC50_Mean.

For assay [2], the target named is T1, Corticotropin-releasing factor receptor 2/Corticotropin-releasing factor-binding protein. The experiment in a line: activators of CRF receptor 2 with binding protein – uHTS hits, confirmation (AID 602473). To be noted: read-out: EC50_Mean.
Assay [3] has as its target T2, Replicative DNA helicase DnaB (Mycobacterium tuberculosis, UniProt P9WMR3).
T2 sequence (P9WMR3 whole entry): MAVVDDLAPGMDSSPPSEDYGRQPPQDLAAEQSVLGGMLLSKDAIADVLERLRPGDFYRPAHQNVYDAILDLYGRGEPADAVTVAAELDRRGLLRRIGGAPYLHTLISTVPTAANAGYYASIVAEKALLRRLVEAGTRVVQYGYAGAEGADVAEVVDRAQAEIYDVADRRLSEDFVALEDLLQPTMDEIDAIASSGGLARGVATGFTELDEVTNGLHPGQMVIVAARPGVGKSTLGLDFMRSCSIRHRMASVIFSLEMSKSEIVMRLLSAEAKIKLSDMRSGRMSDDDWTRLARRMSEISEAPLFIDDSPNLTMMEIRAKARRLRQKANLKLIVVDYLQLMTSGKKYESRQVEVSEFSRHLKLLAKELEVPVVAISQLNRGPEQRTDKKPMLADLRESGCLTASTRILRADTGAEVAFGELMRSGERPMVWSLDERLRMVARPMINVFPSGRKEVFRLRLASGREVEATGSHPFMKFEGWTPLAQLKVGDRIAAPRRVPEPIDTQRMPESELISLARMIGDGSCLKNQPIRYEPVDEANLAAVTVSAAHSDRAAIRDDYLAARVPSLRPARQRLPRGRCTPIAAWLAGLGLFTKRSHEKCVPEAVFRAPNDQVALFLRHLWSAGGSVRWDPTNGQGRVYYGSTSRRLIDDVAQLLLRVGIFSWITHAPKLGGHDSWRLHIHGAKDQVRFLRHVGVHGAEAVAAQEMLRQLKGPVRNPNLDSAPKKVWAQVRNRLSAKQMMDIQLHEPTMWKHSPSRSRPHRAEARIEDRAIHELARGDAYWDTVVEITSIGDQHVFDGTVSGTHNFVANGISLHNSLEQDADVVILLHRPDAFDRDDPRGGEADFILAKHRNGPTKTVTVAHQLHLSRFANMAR
The experiment in a line: DnaB intein splicing inhibitors, dose response, biochemical, cell-free fluorescence (AID 449749).

For assay [4], the target named is T3, Protein RecA (Mycobacterium tuberculosis, UniProt P9WHJ3).
T3 sequence (P9WHJ3 whole entry): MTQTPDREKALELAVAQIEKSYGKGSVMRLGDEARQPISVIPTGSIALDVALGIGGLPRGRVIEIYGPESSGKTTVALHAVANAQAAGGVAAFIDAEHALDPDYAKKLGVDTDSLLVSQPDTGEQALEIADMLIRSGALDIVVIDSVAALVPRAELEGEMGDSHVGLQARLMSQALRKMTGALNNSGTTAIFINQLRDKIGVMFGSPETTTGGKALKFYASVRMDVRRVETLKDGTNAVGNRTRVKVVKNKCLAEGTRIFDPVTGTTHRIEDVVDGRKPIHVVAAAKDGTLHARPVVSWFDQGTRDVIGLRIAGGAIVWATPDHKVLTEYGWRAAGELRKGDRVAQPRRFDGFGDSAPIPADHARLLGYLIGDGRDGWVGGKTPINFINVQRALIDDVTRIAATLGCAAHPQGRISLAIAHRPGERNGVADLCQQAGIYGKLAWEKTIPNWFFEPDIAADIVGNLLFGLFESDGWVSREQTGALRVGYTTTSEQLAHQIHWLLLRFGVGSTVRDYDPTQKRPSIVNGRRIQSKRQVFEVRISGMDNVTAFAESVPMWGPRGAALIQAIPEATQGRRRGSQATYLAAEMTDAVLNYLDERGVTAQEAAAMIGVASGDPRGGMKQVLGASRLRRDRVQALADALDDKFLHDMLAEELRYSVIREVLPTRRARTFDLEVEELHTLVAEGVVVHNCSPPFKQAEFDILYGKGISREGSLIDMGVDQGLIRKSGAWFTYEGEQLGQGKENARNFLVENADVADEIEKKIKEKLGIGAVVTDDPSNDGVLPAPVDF
In words: Fluorescence Cell-Free Homogeneous Dose Retest to Identify Inhibitors of RecA-Intein Splicing Activity. [Related pubchem assays (depositor defined):AID2097, AID2223, AID489010, AID492950].

A short description of assay [5]: viability of uninfected HEp-2 cells – cell-based, HTS, cytotoxicity control for RSV inhibitor project, dose response (AID 2410). To be noted: human respiratory syncytial virus.

Calls of active or inactive are those of the source. Where only a bound is given, the exact number is not on record here.

As for `Nc1ccccc1SC1CC(=O)N(c2ccc3c(c2)OCO3)C1=O` (configuration not stated), the IC50 in assay [1] was > 47.1 µM (inactive). Besides, in assay [2], the EC50 was > 53 µM (inactive). As for `CCOc1cc2[nH]c(=O)n(Cc3ccccc3)c(=O)c2cc1OCC`, the IC50 in assay [1] was > 47.1 µM (inactive). Also, the EC50 in assay [2] is > 53 µM (inactive).

For the compound `COc1ccc(N(CC(=O)N/N=C/c2ccc3c(c2)OCO3)S(=O)(=O)c2ccc(NC(C)=O)cc2)cc1`, in assay [1], the IC50 was > 47.1 µM (inactive). Moreover, the EC50 in assay [2] was > 53 µM (inactive). As to `CC12CC3CC(C)(C1)CC(C(=O)NNC(=O)c1ccncc1)(C3)C2`, in assay [1], the IC50 is > 47.1 µM (inactive). Besides, in assay [2], the EC50 is > 53 µM (inactive). With `CCOc1ccc(C2C(C#N)=C(N)Oc3[nH]nc(C)c32)cc1OC(=O)C1CC1` (configuration not stated), the AC50 – broadly, the concentration at which the activity in the assay is half-maximal – in assay [3] was 17.7 µM (active). In assay [4], the EC50 was 9.82 µM (active). For `CS/C(=C\[N+](=O)[O-])Nc1ccc(OC(F)(F)F)cc1`, the AC50 in assay [3] is 14.6 µM (active). Moreover, the EC50 in assay [4] was 7.21 µM (active).

As for `Cc1cc(O)c(C(C)C)cc1/N=C\c1ccccc1O`, the AC50 in assay [3] is 4.29 µM (active). Also, in assay [4], the EC50 was 8.89 µM (active). In the case of `CSc1ccccc1NC(=O)COC(=O)c1c[nH]c(=O)[nH]c1=O`, in assay [2], the EC50 is > 53 µM (inactive). With `O=C1C(Cl)=C(NCC2CCCO2)C(=O)N1c1ccccc1` (configuration not stated), the AC50 in assay [3] is 18.8 µM (active). Also, in assay [4], the EC50 was 6.58 µM (active).

For the compound `CCn1c(SCC(=O)N2CCN(c3cccc(Cl)c3)CC2)nc2ccccc2c1=O`, in assay [5], the CC50 (usually the concentration giving 50% cytotoxicity) is 47.5 µM (active). The same measure, in the same setting: in the case of `CCCC(=O)Nc1ccc2c(c1)Cc1ccccc1-2` it was > 50 µM (active). For `COc1ccccc1NS(=O)(=O)c1cc(C(=O)N2CCCC2)ccc1F`, the IC50 in assay [1] was > 47.1 µM (inactive). In assay [2], the EC50 is > 53 µM (inactive). For `Cc1c(C(=O)Nc2cccc([N+](=O)[O-])c2)sc2ncn(CC(=O)N3CCOCC3)c(=O)c12` the same measures were > 47.1 µM (inactive) and > 53 µM (inactive).

Take `Cc1cc(C)cc(NC(=O)c2ccc(N3C(=O)C4CCCCC4C3=O)cc2)c1` (configuration not stated): the IC50 in assay [1] was > 47.1 µM (inactive). Besides, in assay [2], the EC50 was > 53 µM (inactive). With `Cc1c(C(c2ccc(N(C)C)cc2)c2c(C)n(C)n(-c3ccccc3)c2=O)c(=O)n(-c2ccccc2)n1C`, the IC50 in assay [1] was > 47.1 µM (inactive). In addition, in assay [2], the EC50 was > 53 µM (inactive). As for `CCN1N=C(c2cc(Cl)sc2Cl)CSC1=O`, the CC50 in assay [5] is > 50 µM (active). Turning to `COc1ccc(-c2csc(NC(=O)CS(=O)(=O)c3ccccc3)n2)cc1`, the CC50 in assay [5] is 20.4 µM (active). With `O=C(CCN1CCCC1=O)NC1CCCc2c1cnn2-c1ccccc1F` (configuration not stated), the IC50 in assay [1] is > 47.1 µM (inactive). Also, the EC50 in assay [2] was > 53 µM (inactive). As for `CCn1cc(C(=O)NCCCN(CC(C)C)CC(C)C)c(=O)c2cc(S(=O)(=O)N(C)C3CCCCC3)ccc21`, the EC50 in assay [2] was 7.06 µM (active). Take `O=C1C([O-])=C([n+]2ccccc2)C(=O)c2ccccc21`: in assay [3], the AC50 is 2.79 µM (active). Also, the EC50 in assay [4] is 3.52 µM (active). As for `CSc1ccccc1C(=O)N1CCN(S(=O)(=O)c2sc(C(=O)O)c(C)c2C(=O)O)CC1`, the IC50 in assay [1] was > 47.1 µM (inactive). The EC50 in assay [2] is > 53 µM (inactive). For `O=C(COc1cccc(Cl)c1)Nc1ccc(N2CCOCC2)cc1` the same measures were > 47.1 µM (inactive) and > 53 µM (inactive). As for `Cc1cc2c3c(c1)C(C)CC(C)(C)N3C(=O)C2=C(C#N)C#N` (configuration not stated), the AC50 in assay [3] was 23.8 µM (active). Also, in assay [4], the EC50 is 2.22 µM (active). With `COCCN1CCC(CO)C1` (configuration not stated), in assay [1], the IC50 is > 47.1 µM (inactive). Further, in assay [2], the EC50 is > 53 µM (inactive).

Regarding `Cc1ccc2c(cnn2C(=O)CCC(=O)N2CCCCC2)c1`, in assay [1], the IC50 is > 47.1 µM (inactive). The EC50 in assay [2] is > 53 µM (inactive).

In the case of `COC(=O)C(C)N(C(=O)c1cccc2ccccc12)c1c(C)cccc1C` (configuration not stated), the CC50 in assay [5] is 19.9 µM (active). For the compound `N#C/C(=C\c1cccc(O)c1)c1nc2ccccc2o1`, in assay [3], the AC50 was 53.1 µM (active). Further, in assay [4], the EC50 is 9.27 µM (active). `C/C(=N\NC1=NC(=O)C(CC(=O)Nc2ccc(C)c(Cl)c2)S1)C(C)(C)C` (configuration not stated): the CC50 in assay [5] was 13.8 µM (active). For the compound `O=C(CCl)N(c1ccccc1)c1ccccc1`, the AC50 in assay [3] is 17.1 µM (active). In addition, in assay [4], the EC50 was 0.484 µM (active). As to `Nc1nonc1-n1nnc(C(=O)N/N=C/c2ccccc2)c1CSc1ccc(Cl)cc1`, in assay [2], the EC50 is > 53 µM (inactive). As for `CC(C)(CSc1ncccn1)NS(=O)(=O)c1ccccc1`, in assay [1], the IC50 was > 47.1 µM (inactive). Besides, the EC50 in assay [2] is > 53 µM (inactive). For `Cc1onc(-c2ccccc2)c1CNC(=O)CN1C(=O)c2ccccc2C1=O` the same measures were > 47.1 µM (inactive) and > 53 µM (inactive). On to `CN(CCc1cnn(C)c1)C(=O)C1CCC(=O)N(CC2CCCCC2)C1` (configuration not stated), for which the AC50 in assay [3] was > 380 µM (inactive). The EC50 in assay [4] was > 380 µM (inactive). For the compound `CC(C)Cc1ccc(-c2cc(O)[nH]n2)cc1`, the AC50 in assay [3] is 1.79 µM (active). The EC50 in assay [4] is 0.664 µM (active).

On to `CC1=C(C#N)C(=O)NC(C)(C)C1`, for which, in assay [1], the IC50 is > 47.1 µM (inactive). Moreover, in assay [2], the EC50 is > 53 µM (inactive).

In the case of `CCC(=O)Nc1cccc(-c2csc(-c3ccccc3)n2)c1`, in assay [5], the 50% cytotoxic concentration (CC50) was 26.4 µM (active). Regarding `Cc1cc(=O)n(-c2ccc(C(=O)O)cc2)[nH]1`, the AC50 in assay [3] was 1.9 µM (active). In assay [4], the EC50 was 1.92 µM (active). As to `CC(=O)c1cc(F)c(N2CCN(C(=O)C(C)(C)C)CC2)cc1C`, in assay [1], the IC50 was > 47.1 µM (inactive). Also, in assay [2], the EC50 was > 53 µM (inactive).

`Cc1occc1C(=O)N/N=C/C(Br)=C/c1ccccc1`: the CC50 in assay [5] was 32 µM (active).
